Laboratory results published in US11591341B2 (ALIGOS THERAPEUTICS, INC., priority 2019, dated 2023).
Where two headings read alike, the source gives them in different places.

System: HBV
Assay: HBV-DNA Antiviral Assay Using HepG2.117 Cells (intracellular HBV DNA by qPCR)
Assay type: cell-based, hepatitis B virus (genotype D)
Method: The following assay procedure describes the HBV antiviral assay, using HepG2.117 cells, which carry a stably integrated genotype D HBV genome under the control of a Tet-off promoter, and intracellular HBV DNA quantification as endpoint. Cell viability is assessed in parallel by measuring the intracellular ATP content using ATPlite (Perkin Elmer).
On day 0, HepG2.117 cells (which are maintained in routine cell culture with doxycycline present in the medium at a final concentration of 1 μg/mL) were seeded in 96-well plates (white with clear bottom) at a density of 2.0×10^4 cells/well (0.1 mL/well) in medium without doxycycline to induce pgRNA transcription and subsequent formation of HBV particles. The cells were incubated at 37° C. and 5% CO2.
On day 1, medium was removed from each well, the test articles were diluted in culture medium without doxcycyline and 100 μL was added to cell culture wells (9 concentrations, 4-fold dilution). For each plate, 6 untreated (merely DMSO) wells were included. The final concentration of DMSO in the culture medium was 2%. Each plate was prepared in duplicate (one for HBV DNA extraction, one for ATPlite measurement). The cells were incubated at 37° C. and 5% CO2 for 3 days.
On day 4, cell viability was assessed using ATPlite and cell lysates were prepared for HBV DNA extraction and subsequent quantification by qPCR.
Medium was removed from each well and 100 μL of 0.33% NP-40 in H2O was added to each well. Plates were sealed, incubated at 4° C. for 5 mins, vortexed extensively and centrifuged briefly. Next, 35 μL of lysate was added to 65 μL QuickExtract DNA Extraction Solution (Epicentre) in a PCR plate for each well. PCR plate was incubated at 65° C. for 6 mins, 98° C. for 2 mins and finally cooled to 4° C. HBV DNA was then quantified by qPCR with HBV-specific primers and probes as specified in Table 3 using the Bio-Rad SSOAdvanced Universal Probes Supermix on a CFX96 machine (Bio-Rad). The PCR cycle program consisted of 95° C. for 3 mins, followed by 40 cycles at 95° C. for 10 sec and 60° C. for 30 sec.
A DNA standard was prepared by dilution of an IDT gBlock corresponding to the amplicon with concentrations ranging from 10^2 to 10^8 copies/input (i.e. per 4 μL) and used to generate a standard curve by plotting Cq values vs. HBV DNA standard concentration. The quantity of HBV DNA in each sample was determined by interpolating from the standard curve.
Cell viability was calculated as follows: % Cell viability=(luminescence value of test sample)/(average luminescence value of 2% DMSO control)×100%. HBV DNA inhibition was calculated as follows: 100−(HBV DNA copy number of test sample)/(average HBV DNA copy number of 2% DMSO control)×100%. No normalization to entecavir was required due to the excellent dynamic window of this assay. The CC50, EC50 and EC90 values were determined by dose-response curves fitted by GraphPad Prism using “log (agonist) vs. response—Variable slope”.

Row | Molecule | EC50 (HBV DNA inhibition, HepG2.117 cells, intracellular HBV DNA by qPCR (Table 4), read-out: EC50) | EC50 (Hepatitis B virus, HepG2.117)
1 | 13-benzyl-4-(4-bromo-3-chloro- benzoyl)-11-methylene-4,7,9,13- tetrazatricyclo[7.5.0.0^2,7]tetradec-1- ene-8.14-dione [Example 109] | 100 to 500 nM | –
2 | C[C@@H](NC(=O)c1c2n(c(=O)n1-c1ccc(OC3CC3)cc1)C[C@H](C)N(C(=O)c1ccc(Br)c(Cl)c1)C2)c1ccccc1F (mixture of isomers) [Example 322, (6SR)-7-(4-bromo-3-chloro-benzoyl)-2-[4-(cyclopropoxy)phenyl]-N-[(1R)-1-(2-fluorophenyl)ethyl]-6-methyl-3-oxo-6,8-dihydro-5H-imidazo[1,5-a]pyrazine-1-carboxamide] | – | 100 to 500 nM
3 | C[C@@H]1Cn2c(c(C(=O)N[C@H](C)c3ccccc3)n(-c3ccc(OC4CC4)cc3)c2=O)CN1C(=O)c1ccc(Br)c(Cl)c1 (mixture of isomers) [Example 331, (6RS)-7-(4-bromo-3-chloro-benzoyl)-2-[4-(cyclopropoxy)phenyl]-6-methyl-3-oxo-N-[(1S)-1-phenylethyl]-6,8-dihydro-5H-imidazo[1,5-a]pyrazine-1-carboxamide] | – | 500 to 5000 nM
4 | C[C@@H](NC(=O)c1c2n(c(=O)n1-c1ccc(OC3CC3)cc1)C[C@H](C)N(C(=O)c1ccc(Br)c(Cl)c1)C2)c1ccccc1 (mixture of isomers) [Example 332, (6SR)-7-(4-bromo-3-chloro-benzoyl)-2-[4-(cyclopropoxy)phenyl]-6-methyl-3-oxo-N-[(1R)-1-phenylethyl]-6,8-dihydro-5H-imidazo[1,5-a]pyrazine-1-carboxamide] | – | 100 to 500 nM
5 | C[C@@H]1Cn2c(c(C(=O)N[C@H](C)c3ccccc3F)n(-c3ccc(OC4CC4)cc3)c2=O)CN1C(=O)c1ccc(Br)c(Cl)c1 (mixture of isomers) [Example 335, (6RS)-7-(4-bromo-3-chloro-benzoyl)-2-[4-(cyclopropoxy)phenyl]-N-[(1S)-1-(2-fluorophenyl)ethyl]-6-methyl-3-oxo-6,8-dihydro-5H-imidazo[1,5-a]pyrazine-1-carboxamide] | – | 500 to 5000 nM
6 | COc1ccc([C@H](C)NC(=O)c2c3n(c(=O)n2-c2ccc(OC4CC4)cc2)C[C@H](C)N(C(=O)c2ccc(Br)c(Cl)c2)C3)cc1 (mixture of isomers) [Example 436, (6SR)-7-(4-bromo-3-chloro-benzoyl)-2-[4-(cyclopropoxy)phenyl]-N-[(1S)-1-(4-methoxyphenyl)ethyl]-6-methyl-3-oxo-6,8-dihydro-5H-imidazo[1,5-a]pyrazine-1-carboxamide] | – | < 100 nM
7 | COc1ccc(-n2c(C(=O)N[C@@H]3CCc4ccccc43)c3n(c2=O)CCN(C(=O)c2ccc(Br)c(Cl)c2)C3)cc1 (racemic) [Example 75, 7-(4-bromo-3-chloro-benzoyl)-2-(4-methoxyphenyl)-3-oxo-N-[rac-(1R)-indan-1-yl]-6,8-dihydro-5H-imidazo[1,5-a]pyrazine-1-carboxamide] | – | 500 to 5000 nM
8 | COc1ccc(-n2c(C(=O)NC(C)C3CC3)c3n(c2=O)CCN(C(=O)c2ccc(Cl)c(Cl)c2)C3)cc1 (racemic) [Example 94, 7-(3,4-dichlorobenzoyl)-2-(4-methoxyphenyl)-3-oxo-N-[rac-(1S)-1-cyclopropylethyl]-6,8-dihydro-5H-imidazo[1,5-a]pyrazine-1-carboxamide] | – | > 5000 nM
9 | COc1ccc(-n2c(C(=O)N[C@H](C)C3CC3)c3n(c2=O)CCN(C(=O)c2ccc(Cl)c(Cl)c2)C3)cc1 (racemic) [Example 95, 7-(3,4-dichlorobenzoyl)-2-(4-methoxyphenyl)-3-oxo-N-[rac-(1R)-1-cyclopropylethyl]-6,8-dihydro-5H-imidazo[1,5-a]pyrazine-1-carboxamide] | – | > 5000 nM
10 | CC(C)Oc1ccc(-n2c(C(=O)NC(C)c3ccccc3)c3n(c2=O)CCN(C(=O)c2ccc(Br)c(Cl)c2)C3)cc1 (racemic) [Example 118, 7-(4-bromo-3-chloro-benzoyl)-2-(4-isopropoxyphenyl)-3-oxo-N-[rac-(1R)-1-phenylethyl]-6,8-dihydro-5H-imidazo[1,5-a]pyrazine-1-carboxamide] | – | 100 to 500 nM
11 | CC(C)Oc1ccc(-n2c(C(=O)N[C@@H](C)c3ccccc3)c3n(c2=O)CCN(C(=O)c2ccc(Br)c(Cl)c2)C3)cc1 (racemic) [Example 119, 7-(4-bromo-3-chloro-benzoyl)-2-(4-isopropoxyphenyl)-3-oxo-N-[rac-(1S)-1-phenylethyl]-6,8-dihydro-5H-imidazo[1,5-a]pyrazine-1-carboxamide] | – | 100 to 500 nM
12 | COc1ccc(-n2c(C(=O)N[C@@H](CO)c3ccccc3)c3n(c2=O)CCN(C(=O)c2ccc(Br)c(Cl)c2)C3)cc1 (racemic) [Example 144, 7-(4-bromo-3-chloro-benzoyl)-2-(4-methoxyphenyl)-3-oxo-N-[rac-(1R)-2-hydroxy-1-phenyl-ethyl]-6,8-dihydro-5H-imidazo[1,5-a]pyrazine-1-carboxamide] | – | 500 to 5000 nM
13 | COc1ccc(-n2c(C(=O)N[C@H](C)c3ccc(Br)cc3)c3n(c2=O)CCN(C(=O)c2ccc(Br)c(Cl)c2)C3)cc1 (racemic) [Example 145, 7-(4-bromo-3-chloro-benzoyl)-2-(4-methoxyphenyl)-3-oxo-N-[rac-(1R)-1-(4-bromophenyl)ethyl]-6,8-dihydro-5H-imidazo[1,5-a]pyrazine-1-carboxamide] | – | 100 to 500 nM
14 | COc1ccc(-n2c(C(=O)N[C@@H](c3ccccc3)C3CC3)c3n(c2=O)CCN(C(=O)c2ccc(Br)c(Cl)c2)C3)cc1 (racemic) [Example 149, 7-(4-bromo-3-chloro-benzoyl)-2-(4-methoxyphenyl)-3-oxo-N-[rac-(R)-cyclopropyl(phenyl)methyl]-6,8-dihydro-5H-imidazo[1,5-a]pyrazine-1-carboxamide] | – | 500 to 5000 nM
15 | COc1ccc(-n2c(C(=O)NC(c3ccccc3)C(C)C)c3n(c2=O)CCN(C(=O)c2ccc(Br)c(Cl)c2)C3)cc1 (racemic) [Example 160, 7-(4-bromo-3-chloro-benzoyl)-2-(4-methoxyphenyl)-3-oxo-N-[rac-(1S)-2-methyl-1-phenyl-propyl]-6,8-dihydro-5H-imidazo[1,5-a]pyrazine-1-carboxamide] | – | 500 to 5000 nM
16 | C[C@H](NC(=O)c1c2n(c(=O)n1-c1ccc(OC3CC3)cc1)CCN(C(=O)c1ccc(Br)c(Cl)c1)C2)c1ccccc1 (racemic) [Example 168, 7-(4-bromo-3-chloro-benzoy)-2-[4-(cyclopropoxy)phenyl]-3-oxo-N-[rac-(1S)-1-phenylethyl]-6,8-dihydro-5H-imidazo[1,5-a]pyrazine-1-carboxamide] | – | 100 to 500 nM
17 | COc1ccc(-n2c(C(=O)NC(c3ccccc3)C3CC3)c3n(c2=O)CCN(C(=O)c2ccc(Br)c(Cl)c2)C3)cc1 (racemic) [Example 176, 7-(4-bromo-3-chloro-benzoyl)-2-(4-methoxyphenyl)-3-oxo-N-[rac-(S)-cyclopropyl(phenyl)methyl]-6,8-dihydro-5H-imidazo[1,5-a]pyrazine-1-carboxamide] | – | 100 to 500 nM
18 | COc1ccc(-n2c(C(=O)N[C@@H](c3ccccc3)C(C)C)c3n(c2=O)CCN(C(=O)c2ccc(Br)c(Cl)c2)C3)cc1 (racemic) [Example 178, 7-(4-bromo-3-chloro-benzoyl)-2-(4-methoxyphenyl)-3-oxo-N-[rac-(1R)-2-methyl-1-phenyl-propyl]-6,8-dihydro-5H-imidazo[1,5-a]pyrazine-1-carboxamide] | – | 500 to 5000 nM
19 | CC(NC(=O)c1c2n(c(=O)n1-c1ccc(OC3CC3)cc1)CCN(C(=O)c1ccc(Br)c(Cl)c1)C2)c1ccccc1 (racemic) [Example 179, 7-(4-bromo-3-chloro-benzoyl)-2-[4-(cyclopropoxy)phenyl]-3-oxo-N-[rac-(1R)-1-phenylethyl]-6,8-dihydro-5H-imidazo[1,5-a]pyrazine-1-carboxamide] | – | 100 to 500 nM
20 | C[C@@H](NC(=O)c1[nH]c(=O)n2c1CN(C(=O)c1ccc(Br)c(Cl)c1)CC2)c1ccccc1 (racemic) [Example 188, 7-(4-bromo-3-chloro-benzoyl)-3-oxo-N-[rac-(1R)-1-phenylethyl]-2,5,6,8-tetrahydroimidazo[1,5-a]pyrazine-1-carboxamide] | – | 500 to 5000 nM
